# Measured values taken from patent US8097608B2, “Methods for treatment of cardiovascular disorders and diseases” (Technion Research and Development Foundation Ltd., priority 2003, dated 2012).
# Key:
# [1] = test system: Bax, Bcl-2, PKC-ε in hearts of naïve rats; experiment: Anti-apoptotic and pro-apoptotic proteins in hearts of naive rats; format: in vivo, rat; settings: 5 mg/kg/day orally for 21 days
# Procedure: In this experiment we tested the effects of propargylamine and S(−)—N-propargyl-1-aminoindan on several key anti-apoptotic and pro-apoptotic proteins in hearts of naïve rats.
# The drugs (5 mg/kg/day) were orally administered to rats for 21 days (n=4-6 rats in each group), and measurements were made after sacrifice. […] Furthermore, both propargylamine and S(−)—N-propargyl-1-aminoindan increased the expression of the key anti-apoptotic PKC-ε (FIGS. 9D-9E, respectively).
# naïve rats = experiment: Cardiovascular hemodynamic parameters in naive rats after IV bolus; format: in vivo, rat
# Procedure: As the first step in testing the beneficial in vivo efficacy of the propargylamine derivatives on the cardiac function, we measured key cardiovascular hemodynamic parameters in control naïve rats, and in rats administered IV with a bolus of 1 mg/kg S(−)—N-propargyl-1-aminoindan, followed with a bolus of 10 mg/kg S(−)—N-propargyl-1-aminoindan (Sprague Dawley rats were used, n=3 rats in each group). Measurements were made at baseline, 30 minutes after each drug administration, and 1 hour (recovery) after drug administration.
# H9c2 cells [2] = experiment: Serum starvation-induced apoptosis in H9c2 cells, MTT staining assay; format: cell-based, rat; settings: 0.1-10 μM; 0% FCS for 24 hours
# Procedure: (§1) (b) Serum starvation—To induce apoptosis, H9c2 cultures were incubated in the culture medium containing 0% FCS for the indicated times.
# CHF rats = experiment: Echocardiography in volume overload-induced CHF rats (AVF); format: in vivo, rat; settings: 7.5 mg/kg/day orally, 21 days from 7 days prior to surgery; for Reduction in fractional shortening: day 21 (14 days post-surgery)
# Procedure: (§2) (v) Animals. Studies were conducted on male Sprague Dawley rats (Harlan Laboratories Ltd., Jerusalem, Israel), weighing ˜300 g. The animals were kept in a temperature-controlled room and maintained on standard rat diet (0.5% NaCl). All experiments were performed according to the guidelines of the Technion Committee for Supervision of Animal Experiments (Haifa, Israel). […] Sham-operated rats served as controls. Drugs (or saline as control) were orally administered, starting 7 days prior to surgery (day 0) and were continued for 21 days. Surgery was performed on day 7 and animals sacrified 14 days post-surgery (day 21). Cardiac function was determined by echocardiography on days 0, 10 (3 days post-surgery) and 21 (before sacrifice). After the last echocardiography measurement, rats were sacrified and hearts were analyzed.
# Rats were treated as described in Materials and Methods hereinabove and volume overload was induced by surgical creation of an aortocaval fistula (AVF). Drugs (7.5 mg/kg/day) were administered according to the protocol described above, starting 7 days prior to surgery (day 0) and during 21 days. Cardiac function was determined by echocardiography, from which two principle parameters, namely, diastolic area and systolic area, were calculated. These parameters were used for calculating the fractional shortening, which is an established measure of the ventricular contraction capacity, according to the equation: Fractional shortening =(diastolic area-systolic area)/diastolic area.
# [3] = test system: neonatal rat ventricular myocytes; experiment: Doxorubicin-induced apoptosis in neonatal rat ventricular myocytes (caspase-3 cleavage); format: cell-based; settings: 1 or 10 μM, added 24 hours before; 1 μM doxorubicin 24 hours
# Procedure: In order to test whether propargylamine or S(−)—N-propargyl-1-aminoindan can prevent doxorubicin-induced apoptosis in cultured neonatal rat ventricular myocytes, these drugs (at a concentration of either 1 or 10 μM) were introduced to the culture medium 24 hours before the incubation (24 hours) with 1 μM doxorubicin.
# [4] = test system: neonatal rat ventricular myocytes; experiment: Fas-mediated hypertrophy in cultured neonatal rat ventricular myocytes (ANP mRNA, RT-PCR); format: cell-based; settings: rFasL 24 hours; for ANP mRNA elevation induced by Fas activation: 10 μM, 3 experiments per drug
# Procedure: In order to test whether rasagiline can prevent the marked hypertrophy induced in cultured neonatal rat ventricular myocytes (for methods, see Yaniv et al., 2002), Fas was activated for 24 hours by incubation with rFasL (10 ng/ml plus 1 μg/ml of the enhancer antibody). Hypertrophy was assessed by determining the mRNA levels (by means of RT-PCR) of the atrial natriuretic peptide (ANP), which is a most common molecular marker of hypertrophy. Rasagiline ([…]) was added to the culture 1 hour before Fas activation and remained in the medium throughout the 24 hours exposure to rFasL.
# In order to test whether S(−)—N-propargyl-1-aminoindan and propargylamine have the same effect on marked hypertrophy induced in cultured neonatal rat ventricular myocytes, similar experiments were performed using either propargylamin or S(−)—N-propargyl-1-aminoindan (both at a concentration of 10 μM) instead of rasagiline.
# [5] = test system: caspase-3 and cytochrome C in CHF rats; experiment: Caspase-3 and cytosolic cytochrome C in volume overload-induced CHF rats (AVF); format: in vivo, rat
# Procedure: as §2
# Rats were treated as described in Materials and Methods hereinabove and volume overload was induced by surgical creation of an aortocaval fistula (AVF). Sham-operated rats served as controls. 14 days after induction of volume-overload, caspase-3 cleavage and cytosolic cytochrome C, both pro-apoptotic proteins, were analyzed.
# In the following experiment we tested whether propargylamine or S(−)—N-propargyl-1-aminoindan can reduce CHF-induced increase in caspase-3 and cytochrome C. Rats were treated and drugs were administered (1 or 7.5 mg/kg/day S(−)—N-propargyl-1-aminoindan, or 5 mg/kg/day propargylamine) as described in Materials and Methods hereinabove.
# H9c2 cells [6] = experiment: Fas-mediated (rFasL) apoptosis in H9c2 cells, DAPI staining; format: cell-based, rat; settings: added 16 hours before and present throughout
# Procedure: (§3) (ii) Cell Line H9c2. Experiments were performed on the embryonic rat heart cell line H9c2. H9c2 cells were cultured in DMEM (Biological Industries, Beit-Haemek, Israel) supplemented with 10% fetal calf serum (FCS), 50 units/ml penicillin G, 50 μg/ml streptomycin sulfate, 2 mg/ml L-glutamine and sodium pyruvate. H9c2 cells were harvested by trypsinization, washed with PBS, diluted to a concentration of 5×10^4 cells/ml with DMEM (high glucose) and cultured at 0.5 ml/well on sterile glass cover slips in 24-well plates.
# (c) Activation of the Fas receptor—Fas activation was induced by incubating the cultures with recombinant human Fas Ligand (rFasL; 10 ng/ml) plus the enhancing antibody (1 μg/ml) for the indicated times, according to the manufacturer's recommendations (Alexis Biochemicals, San Diego, Calif.).
# (§4) (iv) Determination of Apoptosis by DAPI. Cultures were counterstained with 4′, 6-diamidino-2-phenylindole (DAPI) to visualize the nuclear morphology.
# Cultures of embryonic rat heart cell line H9c2 were incubated with rFasL (10 ng/ml) and an enhancing antibody for periods of time of 9, 10 and 24 hours, and apoptosis measured thereafter.
# In order to determine whether rasagiline can prevent Fas-mediated apoptosis, the Fas receptor was activated for 9, 10 and 24 hours as described above. Rasagiline (10 μM) was introduced to the culture medium 16 hours before, and was present throughout the apoptosis-inducing protocol (n=3 wells).
# Each one of the drugs, at a concentration of either 0.1 or 1.0 μM was introduced to the culture medium 16 hours before, and was presented throughout the apoptosis-inducing protocol (n=3 wells).
# [7] = test system: neonatal rat ventricular myocytes; experiment: Serum starvation-induced apoptosis in neonatal rat ventricular myocytes (caspase-3 cleavage, Bcl-2); format: cell-based; settings: 0.1 μM, added 1 hour before; 0% FCS, 24 hours
# Procedure: Caspase-3 is a protein of the cysteine-aspartic acid protease (caspase) family, known as a key pro-apoptotic protein and therefore as a common marker of apoptosis.
# In order to test whether propargylamine can prevent serum starvation-induced apoptosis in cultured neonatal rat ventricular myocytes, we repeated the serum starvation protocol and 0.1 μM propargylamine was introduced to the culture medium 1 hour before serum starvation. As shown in FIGS. 6B-6C, propargylamine attenuated serum starvation-induced apoptosis in neonatal rat ventricular myocytes as indicated both by the drug-induced decrease in caspase 3 cleavage (FIG. 6B) and increase in the expression of mitochondrial Bcl-2, known as an anti-apoptotic protein (FIG. 6C).
# H9c2 cells [8] = experiment: Serum starvation-induced apoptosis in H9c2 cells, DAPI staining; format: cell-based, rat
# Procedure: as §3, §1, §4
# The next apoptosis-inducing stimulus tested was serum starvation ([…], 0% serum in the culture medium). To induce apoptosis, H9c2 cells were incubated in the culture medium containing 0% FCS for 6, 7, 8 or 9 hours. Rasagiline (10 μM) was introduced to the culture medium 2 hours before inducing serum starvation and was present throughout the apoptosis-inducing protocol (n=3 wells).
# In another experiment, we repeated the serum starvation protocol, and also tested in the same cultures whether rasagiline can protect against H2O2-induced apoptosis. Rasagiline was introduced to the culture medium 2 hours before inducing serum starvation or adding H2O2, and was present throughout the apoptosis-inducing protocol (n=4 experiments; ˜2000 cells counted).
# [9] = 10 mg/kg IV bolus, 30 minutes after administration
# [10] = 0.1 or 1.0 μM, ~10 hours incubation with rFasL (~10% apoptosis)
structure (smiles),measurement,setting,value
C#CCN[C@H]1CCc2ccccc21 [S(−)—N-propargyl-1-aminoindan],Expression of anti-apoptotic PKC-ε,[1],increased
same,Cardiac index,naïve rats; [9],markedly increased
same,Cardiac output,naïve rats; [9],markedly increased
same,Heart rate,naïve rats; [9],did not affect
same,Mean arterial pressure (MAP),naïve rats; [9],did not affect
same,Reversibility of the effect on cardiac function,"naïve rats; washout period (recovery, 1 hour after administration)",reversible
same,"Anti-apoptotic effect, serum starvation, MTT staining",H9c2 cells [2],anti-apoptotic effect
same,Reduction in fractional shortening,CHF rats,completely prevented
same,Hypertrophic increase in the diastolic area,CHF rats; days 10 and 21,completely prevented
same,Hypertrophic increase in the systolic area,CHF rats; days 10 and 21,completely prevented
same,Doxorubicin-induced apoptosis (caspase-3 cleavage),[3],significantly attenuated
same,ANP mRNA elevation induced by Fas activation,[4],completely blocked
same,CHF-induced increase in cytochrome C,[5]; 1 mg/kg/day orally for 21 days (FIG. 11B),significantly reduced
same,CHF-induced increase in caspase-3,[5]; 7.5 mg/kg/day orally for 21 days (FIG. 11A),significantly reduced
same,Fas-mediated apoptosis,H9c2 cells [6]; [10],completely prevented
C#CCN [propargylamine],Expression of anti-apoptotic PKC-ε,[1],increased
same,Expression of mitochondrial anti-apoptotic protein Bcl-2,[1],markedly increased
same,Expression of mitochondrial pro-apoptotic protein Bax,[1],did not affect
same,Ratio Bcl-2/Bax,[1],marked increase
same,Hypertrophic increase in the diastolic area,CHF rats; 14 days post-surgery,completely prevented
same,Hypertrophic increase in the systolic area,CHF rats; 14 days post-surgery,completely prevented
same,Reduction in fractional shortening,CHF rats,completely prevented
same,"Caspase 3 cleavage, serum starvation",[7],decrease
same,"Expression of mitochondrial Bcl-2, serum starvation",[7],increase
same,Doxorubicin-induced apoptosis (caspase-3 cleavage),[3],significantly attenuated
same,ANP mRNA elevation induced by Fas activation,[4],completely blocked
same,CHF-induced increase in caspase-3,[5]; 5 mg/kg/day orally for 21 days,significantly reduced
same,CHF-induced increase in cytochrome C,[5]; 5 mg/kg/day orally for 21 days (FIG. 11B),significantly reduced
same,Fas-mediated apoptosis,H9c2 cells [6]; [10],completely prevented
"C#CCN[C@@H]1CCc2ccccc21 [rasagiline, R(+)—N-propargyl-1-aminoindan]",Serum starvation-induced apoptosis,"H9c2 cells [8]; 10 μM, added 2 hours before, 9 hrs serum starvation (12% apoptosis)",completely prevented
same,"Anti-apoptotic effect, serum starvation","H9c2 cells [8]; 0.1-10 μM, added 2 hours before, 0% FCS for 24 hours",anti-apoptotic effect
same,Apoptosis induced by serum starvation,"H9c2 cells [8]; Example 3, added 2 hours before, n=4 experiments",prevented
same,Fas-mediated hypertrophy (ANP mRNA),"[4]; 10 μM/ml, added 1 hour before, preliminary, data not shown",prevented Fas-mediated hypertrophy
same,Fas-mediated apoptosis,"H9c2 cells [6]; 10 μM, 10 hours incubation with rFasL (~20% apoptosis)",completely prevented
